According to patent EP0605261B1, “Use of a flavone derivative as taste modifier and a method of modifying taste” (SAN-EI GEN F.F.I., INC., priority 1992, dated 1994):

Key:
Format in all cases: in vivo
[1] = Sensory test (limiting method): enhancing the sourness of acid sugar solution; design: key: (equivalent citric acid content / citric acid content with flavone) × 100; conditions: citric acid 1.000 (g), flavone derivative (I) 0.00001 (g), 8 panellers; for Value of enhancing the sourness Ascending system: ascending system (from low concentration); for Value of enhancing the sourness Descending system: descending system (from high concentration)
Experimental: Compounds 1 to 11 of the flavone derivative (I) were used as a taste modifier to prepare acid sugar solution having compositions as follows:
As a control, 21 types of acid sugar solutions are used. In the control, the flavone derivative (I) is removed from the above composition and the content of citric acid is varied from 1.000 g to 1.500 g by 0.025 g.
Sensory tests were carried out by 8 trained panellers in accordance with a limiting method described in the Hand Book of Sensory evaluation, edited by Research Committee of sensory evaluation, Union of Japanese Scientists and Engineers, p.398 (1973) in use of acid sugar solutions containing respective flavone derivatives (I) and another acid sugar solutions having a various content of citric acid.
As for the content of citric acid, two types sensory tests were conducted, one was an ascending system (testing from solution with low concentration) and another was a descending system (testing from solution with high concentration).
The sensory evaluation was made by a value of enhancing the sourness. The value of enhancing the sourness was calculated by the following formula based on the content of citric acid in acid sugar solutions with varied concentration of citric acid, which has an equivalent stimulation with an acid sugar solution containing the flavone derivative (I) Value of enhancing the sourness = (content of citric acid in acid sugar solution sensed as an equivalent stimulation/content of citric acid in acid sugar solution containing the flavone derivative (I)) x 100 [formula]

[2] = Sensory test: refreshness, its continuity and quality of taste (mouth refreshing agent); conditions: 0.1 (w/w)% flavor composition F (0.00005 (g) Compound 9) vs E, 8 panellers
Experimental: Compound 9 of the flavone derivative (I) was used as a taste modifier. Mouth refreshing agent comprising the above flavor composition E (control) or F (containing the flavone derivative (I)) was prepared.
First, 30 g of ethanol, 10 g of glycerin, 2 g of polyoxyethylene hardened castor oil, 0.1 g of sodium saccharin, 0.005 g of chlorhexidine and 58 g of water were mixed, and the above flavor composition E was added thereto such that 0.1 (w/w)% of the flavor compositon was contained, thereby preparing flavone derivative (I) free mouth refreshing agent. Alternatively, the flavor composition F was used in stead of the flavor composition E to prepare flavone derivative (I)-containing mouth refreshing agent.
Sensory tests for obtained mouth refreshing agents were carried out by 8 panellers comprised of 6 males and 2 females at the age from 20 to 40.

[3] = Sensory test: refreshness, its continuity and quality of taste (hard candy); conditions: 0.1 (w/w)% flavor composition D (0.0001 (g) Compound 1) vs C, 8 panellers
Experimental: Compound 1 of the flavone derivative (I) was used as a taste modifier. Hard candy containing the above flavor composition C (control) or D (containing the flavone derivative (I)) was prepared.
First, 60 g of sugar, 40 g of thin malt syrup and 20 g of water were mixed and heated up to about 150°C to boil down, and then allowed to cool to about 120 °C while stirring. Next, the above flavor composition C was added thereto such that 0.1 (w/w)% of the flavor composition was contained and it is poured into a box, thereby preparing flavone derivative (I) free hard candy.
Alternatively, the flavor composition D was used in stead of the flavor composition C to prepare flavone derivative (I)-containing hard candy in accordance with the same method.
Sensory tests for obtained hard candy were carried out by 8 panellers comprised of 6 males and 2 females at the age from 20 to 40.

[4] = Sensory test: body and deliciousness (soft candy); conditions: 0.00001 (g) Compound 1, 8 panellers
Experimental: Compound 1 of the flavone derivative (I) was used as a taste modifier. Gelatin which was swelled in advance with a part of water, followed by heating to dissolve, granulated sugar, thick malt syrup and the remaining water was mixed, followed by boiling down to 130°C. Then, fondant paste, vegetable oils and fats, emulsifier, colorant and the flavone derivative (I) were added thereto, thereby preparing flavone derivative (I)-containing soft candy. Alternatively, flavone derivative (I) free soft candy was prepared as a control by the same method.
Sensory tests for obtained soft candy were conducted by 8 panellers comprised of 6 males and 2 females at the age from 20 to 40.

[5] = Five points evaluation test: saltiness and savor modifying effect (ham made of pork loin); conditions: Ham made of pork loint, average points of 5 panellers (2: no changes)
Experimental: Compound 6 of the flavone derivative (I) were used as a taste modifier. Ham made of pork loin was prepared by a general method, in use of pickle solutions containing the flavone derivative (I) in the amount of 1, 0.1 and 0.01 ppm and flavone derivative (I) free standard pickle solution, respectively. Sensory tests were carried out for modifying effects of the saltiness and the savor.
The sensory tests were conducted by 5 trained panellers to examine saltiness modifying effect (so called saltiness adapting effect) and savor modifying effect.
Each sample solution was evaluated assuming that the standard solution has the point of 2.
The pickle solution containing the above was prepared and cooled for a night. Then, raw meat (native pork) was molded and the pickle solution was injected at a rate of 120% to the molded meat. After injection, the molded meat was tumbled with tumbler (12 R. P. M./60 minutes) and salted for a night. It was packed in a container and subjected to dry at 60°C for 60 minutes, smoke at 70°C for 40 minutes and steam at 78°C (the temperature of the center raised to 70°C) to finish the processing. The processed meat was cooled for a night and evaluated.

What does the source list for `COc1ccc(-c2cc(=O)c3c(O)c(OC)c(OC)c(OC)c3o2)cc1` [Compound 9, 5-hydroxy-4',6,7,8-tetramethoxyflavone]?
Value of enhancing the sourness Ascending system [1]: 117; Value of enhancing the sourness Descending system [1]: 119; Continuity of refreshness: Those who sensed F additive is better [2]: 8 number of people; Continuity of refreshness: Those who sensed no difference [2]: 0 number of people; Quality of taste: Those who sensed F additive is better [2]: 6 number of people; Quality of taste: Those who sensed no difference [2]: 2 number of people; Refreshness: Those who sensed F additive is better [2]: 7 number of people; Refreshness: Those who sensed no difference [2]: 1 number of people

With `COc1ccc(-c2cc(=O)c3c(OC)c(OC)c(OC)cc3o2)cc1OC` [Compound 1, 3',4',5,6,7-pentamethoxyflavone] as the compound, how does the “Value of enhancing the sourness Ascending system” value [1] read?
Its value is 119.

And the “Value of enhancing the sourness Descending system” value [1]?
The value was 121.

What about the “Continuity of the refreshness: Those who sensed D additive is better” value [3] of the same compound?
Its value is 8 number of people.

What about the “Continuity of the refreshness: Those who sensed no difference” value [3] of the same compound?
Its value is 0 number of people.

What about the “Quality of taste: Those who sensed D additive is better” value [3] of the same compound?
The value was 6 number of people.

What about the “Quality of taste: Those who sensed no difference” value [3] of the same compound?
Its value is 2 number of people.

What about the “Refreshness: Those who sensed D additive is better” value [3] of the same compound?
Its value is 7 number of people.

And the “Refreshness: Those who sensed no difference” value [3]?
Its value is 1 number of people.

What about the “Body: Those who sensed no difference” value [4] of the same compound?
Its value is 1 number of people.

And the “Body: Those who sensed the flavone derivative (I) additive is better” value [4]?
The value was 7 number of people.

And the “Deliciousness: Those who sensed no difference” value [4]?
The value was 0 number of people.

What about the “Deliciousness: Those who sensed the flavone derivative (I) additive is better” value [4] of the same compound?
The value was 8 number of people.

What about the “Quality of taste: Those who sensed no difference” value [4] of the same compound?
The value was 0 number of people.

What about the “Quality of taste: Those who sensed the flavone derivative (I) additive is better” value [4] of the same compound?
Its value is 8 number of people.

With `COc1ccc(-c2cc(=O)c3c(OC)cc(OC)c(OC)c3o2)cc1` [Compound 6, 5,7,8,4'-tetramethoxyflavone] as the compound, how does the “Value of enhancing the sourness Ascending system” value [1] read?
The value was 120.

What about the “Value of enhancing the sourness Descending system” value [1] of the same compound?
The value was 123.

What about the “Saltiness and Savor Modifying Effect: Saltiness” value ([5]; 0.10 ppm in pickle solution) of the same compound?
Its value is 3.0.

What about the “Saltiness and Savor Modifying Effect: Savor” value ([5]; 0.10 ppm in pickle solution) of the same compound?
The value was 3.0.

And the “Saltiness and Savor Modifying Effect: Total evaluation” value ([5]; 0.10 ppm in pickle solution)?
Its value is 3.0.

What about the “Saltiness and Savor Modifying Effect: Saltiness” value ([5]; 1.00 ppm in pickle solution) of the same compound?
Its value is 3.4.

And the “Saltiness and Savor Modifying Effect: Savor” value ([5]; 1.00 ppm in pickle solution)?
The value was 3.4.

What about the “Saltiness and Savor Modifying Effect: Total evaluation” value ([5]; 1.00 ppm in pickle solution) of the same compound?
Its value is 3.4.
